Assay results from patent US11878970B2, “Allosteric chromenone inhibitors of phosphoinositide 3-kinase (PI3K) for the treatment of disease” (Petra Pharma Corporation, priority 2021, dated 2024).

Columns and labels:
[1] = target: T1, PI3K-α (PIK3CA) H1047R mutant, p110α/p85α complex (Homo sapiens, UniProt P42336, H1047R); assay: PI3K-alpha kinase (PIK3CA) biochemical activity, ADP-Glo, H1047R mutant; details: Soy PI lipid substrate
T1 construct: Recombinant, catalytically active human full length PIK3KA Wild-type and H1047R mutant; 6×His (N); purchased EMD Millipore Sigma 14-792M
Excerpt: (§1) PI3K-Alpha Kinase (PIK3CA) Activity, Wild-Type and H1047R Mutant and Determining IC50 Values for Inhibitors
(§2) Recombinant, catalytically active human full length PIK3KA Wild-type and H1047R mutant were purchased as 1:1 complex of N-terminal 6×his tagged p110α (catalytic) and untagged p85α (regulatory subunit) from EMD Millipore Sigma (cat. no. 14-602M and 14-792M, respectively). PIP2diC8 (Avanti Polar Lipids Inc., cat. no. 850185) or Soy PI (Avanti Polar Lipids Inc., cat. No. 840044P) was used as lipid substrate. PIP2diC8 or PI lyophilized powder was dissolved in milliQ water to a concentration of 1 mM just before use. 10 mM stock compounds in DMSO were serially diluted 1:3 to generate a 10-point curve and plated using an acoustic liquid handler system (Echo 550 series instrument, Labcyte). A 10× intermediate compound plate (200 uM starting compound concentration and 10% DMSO) was prepared before starting the reaction. A typical reaction mixture (50 uL) comprised 40 mM HEPES buffer, pH 7.4, 25 mM MgCl2, 0.01% v/v triton-X-100, 1% v/v DMSO, 20 mM NaCl, 1-5 nM WT or H1047R PI3K protein, 20 uM ATP, and 50 uM PIP2diC8 or Soy PI. 1% DMSO buffer alone without test compound was employed as MAX control (full activity in the absence of any inhibitor), and no enzyme control was used to determine the level of background Adenosine 5′-diphosphate (ADP) (MIN control). First, Wild-type (WT) and H1047R mutant protein in kinase buffer with all components except ATP were incubated with or without compound at 27° C. for 1 h. After the pre-incubation, the reaction was initiated by the addition of 20 uL of 50 uM ATP (20 uM final concentration). The reaction was allowed to proceed until about 10% conversion of ATP (2 uM ADP) at 27° C. After that time, 5 uL of reaction was mixed with 5 uL of ADP-Kinase Glo Reagent (ADP-Glo Kinase assay kit, Promega cat. no. V9102) supplemented with MgCl2 10 mM to stop the reaction and deplete the remaining ATP for 40 min at room temperature. Then, 10 uL of Kinase Detection Reagent (ADP-Glo Kinase assay kit, Promega cat. no. V9102) was added to simultaneously convert ADP to ATP and allow the newly synthesized ATP to be measured using a luciferase/luciferin reaction. After 30 min at room temperature the light generated was measured using a luminometer (EnVision plate reader, Perkin Elmer). Process data through Genedata-Screener tool. Relative IC50 values are determined using luminescence units by calculating percent inhibition with respect to on-plate “MIN” and “MAX” controls. Data was analyzed using a 4-parameter nonlinear logistic equation (four-parameter logistic concentration-response curve): Y=bot+[(top−bot)/1+(x/IC50)slope] where Y=% inhibition, X=concentration yielding y % inhibition, Bottom=minimum value of y attained by curve, Top=maximum value of y attained by curve and Slope=steepness of curve at IC50. % Inh=[(median Max−x/median Max−median Min)]·100 IC50: concentration of compound that reduces a given response (ligand binding, enzyme response) by 50%. IC50 relative: concentration giving half the compound's maximum response.

[2] = target: T2, PI3K-α (PIK3CA) wild-type (WT), p110α/p85α complex (Homo sapiens, UniProt P42336); assay: PI3K-alpha kinase (PIK3CA) biochemical activity, ADP-Glo, wild-type; details: Soy PI lipid substrate
T2 construct: Recombinant, catalytically active human full length PIK3KA Wild-type and H1047R mutant; 6×His (N); purchased EMD Millipore Sigma 14-602M
Excerpt: as §1, §2

T1 sequence (P42336 whole entry H1047R): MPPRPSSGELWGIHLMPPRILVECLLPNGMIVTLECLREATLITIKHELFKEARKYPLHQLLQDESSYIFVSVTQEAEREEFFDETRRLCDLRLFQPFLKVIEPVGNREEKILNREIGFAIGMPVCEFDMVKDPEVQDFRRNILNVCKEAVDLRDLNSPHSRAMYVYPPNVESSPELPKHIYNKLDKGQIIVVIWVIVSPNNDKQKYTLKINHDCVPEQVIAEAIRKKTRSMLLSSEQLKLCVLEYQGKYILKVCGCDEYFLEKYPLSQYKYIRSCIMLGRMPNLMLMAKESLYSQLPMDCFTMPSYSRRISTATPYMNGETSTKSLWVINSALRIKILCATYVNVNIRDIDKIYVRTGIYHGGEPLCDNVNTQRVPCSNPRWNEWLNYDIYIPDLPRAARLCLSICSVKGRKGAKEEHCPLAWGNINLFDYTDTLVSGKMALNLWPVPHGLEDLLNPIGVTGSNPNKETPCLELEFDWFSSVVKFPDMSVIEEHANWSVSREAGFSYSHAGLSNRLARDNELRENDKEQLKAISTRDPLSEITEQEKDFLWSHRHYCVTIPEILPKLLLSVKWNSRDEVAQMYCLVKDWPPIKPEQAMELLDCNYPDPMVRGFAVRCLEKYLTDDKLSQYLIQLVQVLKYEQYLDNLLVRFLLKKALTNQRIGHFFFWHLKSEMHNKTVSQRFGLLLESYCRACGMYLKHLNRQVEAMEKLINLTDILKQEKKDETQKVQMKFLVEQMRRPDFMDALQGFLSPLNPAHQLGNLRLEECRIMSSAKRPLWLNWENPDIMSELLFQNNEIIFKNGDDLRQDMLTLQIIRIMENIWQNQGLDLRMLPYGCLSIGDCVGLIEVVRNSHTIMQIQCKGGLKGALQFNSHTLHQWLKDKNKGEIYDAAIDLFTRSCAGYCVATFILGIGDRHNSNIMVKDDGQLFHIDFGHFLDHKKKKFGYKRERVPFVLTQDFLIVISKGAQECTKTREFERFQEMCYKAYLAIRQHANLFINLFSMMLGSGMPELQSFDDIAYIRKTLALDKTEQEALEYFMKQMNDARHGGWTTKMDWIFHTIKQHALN
T1 sequence (P27986 whole entry partner): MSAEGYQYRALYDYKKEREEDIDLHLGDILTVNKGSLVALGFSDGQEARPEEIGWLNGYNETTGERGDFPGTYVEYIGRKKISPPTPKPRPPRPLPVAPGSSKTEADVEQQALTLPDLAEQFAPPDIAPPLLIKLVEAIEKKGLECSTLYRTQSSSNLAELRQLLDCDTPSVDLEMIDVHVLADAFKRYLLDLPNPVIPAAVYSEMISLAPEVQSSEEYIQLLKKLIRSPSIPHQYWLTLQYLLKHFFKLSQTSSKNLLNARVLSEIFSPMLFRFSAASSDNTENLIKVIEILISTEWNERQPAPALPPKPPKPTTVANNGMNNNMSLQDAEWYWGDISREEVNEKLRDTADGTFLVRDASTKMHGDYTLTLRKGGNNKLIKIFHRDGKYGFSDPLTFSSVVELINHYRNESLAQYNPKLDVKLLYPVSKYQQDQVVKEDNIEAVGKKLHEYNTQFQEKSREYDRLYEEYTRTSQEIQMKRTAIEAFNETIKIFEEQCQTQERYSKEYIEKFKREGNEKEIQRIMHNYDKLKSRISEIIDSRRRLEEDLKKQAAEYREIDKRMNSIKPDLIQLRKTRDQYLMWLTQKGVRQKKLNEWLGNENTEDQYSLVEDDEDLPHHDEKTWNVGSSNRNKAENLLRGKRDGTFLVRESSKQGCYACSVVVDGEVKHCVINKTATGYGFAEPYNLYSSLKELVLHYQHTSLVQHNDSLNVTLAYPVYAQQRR

| SMILES | IC50 [1] [µM] | IC50 [2] [µM] |
| --- | --- | --- |
| CC(Nc1ccc(Cl)nc1C(=O)O)c1cc(C(F)(F)F)cc2c(=O)cc(-c3cc4ccccc4[nH]3)oc12 (single isomer, unassigned) [Example 100, 6-Chloro-3-[1-[2-(1H-indol-2-yl)-4-oxo-6-(trifluoromethyl)chromen-8-yl]ethylamino]pyridine-2-carboxylic acid] | < 0.5 | > 10 |
| Cc1cn2nc(-c3cc(=O)c4cc(C(F)(F)F)cc(C(C)Nc5ccccc5C(=O)O)c4o3)ccc2n1 (single isomer, unassigned) [Example 101, 2-[1-[2-(2-Methylimidazo[1,2-b]pyridazin-6-yl)-4-oxo-6-(trifluoromethyl)chromen-8-yl]ethylamino]benzoic acid] | < 0.5 | 1 to 5 |
| Cc1cn2nc(-c3cc(=O)c4cc(C(F)(F)F)cc(C(C)Nc5ccc(Cl)nc5C(=O)O)c4o3)ccc2n1 (single isomer, unassigned) [Example 102, 6-Chloro-3-[1-[2-(2-methylimidazo[1,2-b]pyridazin-6-yl)-4-oxo-6-(trifluoromethyl)chromen-8-yl]ethylamino]pyridine-2-carboxylic acid] | < 0.5 | 1 to 5 |
| Cc1cc(C(C)Nc2ccccc2C(=O)O)c2oc(-c3ccc4c(C#N)nn(C)c4c3)cc(=O)c2c1 (single isomer, unassigned) [Example 104, 2-[1-[2-(3-Cyano-1-methyl-indazol-6-yl)-6-methyl-4-oxo-chromen-8-yl]ethylamino]benzoic acid] | < 0.5 | 1 to 5 |
| Cc1cc(C(C)Nc2ccccc2C(=O)O)c2oc(-c3nccn4cccc34)cc(=O)c2c1 (single isomer, unassigned) [Example 105, 2-[1-(6-Methyl-4-oxo-2-pyrrolo[1,2-a]pyrazin-1-yl-chromen-8-yl)ethylamino]benzoic acid] | < 0.5 | 5 to 10 |
| Cc1cc(C(C)Nc2ccccc2C(=O)O)c2oc(-c3cccn4nccc34)cc(=O)c2c1 (single isomer, unassigned) [Example 106, 2-[1-(6-Methyl-4-oxo-2-pyrazolo[1,5-a]pyridin-4-yl-chromen-8-yl)ethylamino]benzoic acid] | < 0.5 | < 0.5 |
| Cc1cc(C(C)Nc2ccccc2C(=O)O)c2oc(-c3ccc4nc(C)cn4n3)cc(=O)c2c1 (single isomer, unassigned) [Example 107, 2-[1-[6-Methyl-2-(2-methylimidazo[1,2-b]pyridazin-6-yl)-4-oxo-chromen-8-yl]ethylamino]benzoic acid] | 0.5 to 1 | 1 to 5 |
| Cc1cc(C(C)Nc2ccccc2C(=O)O)c2oc(-c3ccn4c(-c5cccnc5)c(C)nc4c3)cc(=O)c2c1 (single isomer, unassigned) [Example 112, 2-[1-[6-Methyl-2-[2-methyl-3-(3-pyridyl)imidazo[1,2-a]pyridin-7-yl]-4-oxo-chromen-8-yl]ethylamino]benzoic acid] | 0.5 to 1 | 1 to 5 |
| Cc1cc(C(C)Nc2ccccc2C(=O)O)c2oc(-c3ccc4cncnc4c3)cc(=O)c2c1 (single isomer, unassigned) [Example 114, 2-[1-(6-Methyl-4-oxo-2-quinazolin-7-yl-chromen-8-yl)ethylamino]benzoic acid] | > 10 | > 10 |
| Cc1cc(C(C)Nc2ccccc2C(=O)O)c2oc(-c3ccc4nc(C)cn4c3)c(C#N)c(=O)c2c1 (single isomer, unassigned) [Example 118, 2-[1-[3-Cyano-6-methyl-2-(2-methylimidazo[1,2-a]pyridin-6-yl)-4-oxo-chromen-8-yl]ethylamino]benzoic acid] | < 0.5 | 1 to 5 |
| Cc1cc(C(C)Nc2ccccc2C(=O)O)c2oc(-c3c4ccccc4nn3C)cc(=O)c2c1 (single isomer, unassigned) [Example 119, 2-[1-[6-Methyl-2-(2-methylindazol-3-yl)-4-oxo-chromen-8-yl]ethylamino]benzoic acid] | 1 to 5 | 1 to 5 |
| Cc1cc(C(C)Nc2ccccc2C(=O)O)c2oc(-c3ccc4cn[nH]c4n3)cc(=O)c2c1 (single isomer, unassigned) [Example 121, 2-[1-[6-Methyl-4-oxo-2-(1H-pyrazolo[3,4-b]pyridin-6-yl)chromen-8-yl]ethylamino]benzoic acid] | < 0.5 | 1 to 5 |
| Cc1cc(C(C)Nc2ccccc2C(=O)O)c2oc(-c3ccc4nn(CC(C)(C)O)cc4c3)cc(=O)c2c1 (single isomer, unassigned) [Example 122, 2-[1-[2-[2-(2-Hydroxy-2-methyl-propyl)indazol-5-yl]-6-methyl-4-oxo-chromen-8-yl]ethylamino]benzoic acid] | 0.5 to 1 | > 10 |
| Cc1cc(C(C)Nc2ccccc2C(=O)O)c2oc(-c3ccc4c(cnn4CC(C)(C)O)c3)cc(=O)c2c1 (single isomer, unassigned) [Example 123, 2-[1-[2-[1-(2-Hydroxy-2-methyl-propyl)indazol-5-yl]-6-methyl-4-oxo-chromen-8-yl]ethylamino]benzoic acid] | < 0.5 | 1 to 5 |
| Cc1cn2cc(-c3oc4c(C(C)Nc5ccccc5C(=O)O)cc(F)cc4c(=O)c3C)ccc2n1 (single isomer, unassigned) [Example 124, 2-[1-[6-Fluoro-3-methyl-2-(2-methylimidazo[1,2-a]pyridin-6-yl)-4-oxo-chromen-8-yl]ethylamino]benzoic acid] | < 0.5 | 0.5 to 1 |
| Cc1cc(C(C)Nc2ccccc2C(=O)O)c2oc(-c3cccn4ccnc34)cc(=O)c2c1 (single isomer, unassigned) [Example 127, 2-[1-(2-Imidazo[1,2-a]pyridin-8-yl-6-methyl-4-oxo-chromen-8-yl)ethylamino]benzoic acid] | 0.5 to 1 | 5 to 10 |
| Cc1c(-c2cc3ccccc3[nH]2)oc2c(C(C)Nc3ccccc3C(=O)O)cc(F)cc2c1=O (single isomer, unassigned) [Example 129, 2-[1-[6-Fluoro-2-(1H-indol-2-yl)-3-methyl-4-oxo-chromen-8-yl]ethylamino]benzoic acid] | < 0.5 | 0.5 to 1 |
| Cc1cc(C(C)Nc2ccccc2C(=O)O)c2oc(-c3ccc4nn(C)cc4n3)c(C)c(=O)c2c1 (single isomer, unassigned) [Example 130, 2-[1-[3,6-Dimethyl-2-(2-methylpyrazolo[4,3-b]pyridin-5-yl)-4-oxo-chromen-8-yl]ethylamino]benzoic acid] | < 0.5 | 0.5 to 1 |
| Cc1cc(C(C)Nc2ccccc2C(=O)O)c2oc(-c3ccc4c(cnn4C)n3)c(C)c(=O)c2c1 (single isomer, unassigned) [Example 131, 2-[1-[3,6-Dimethyl-2-(1-methylpyrazolo[4,3-b]pyridin-5-yl)-4-oxo-chromen-8-yl]ethylamino]benzoic acid] | < 0.5 | 1 to 5 |
| Cc1cc(C(C)Nc2ccccc2C(=O)O)c2oc(-c3ccn4c(-c5ncco5)c(C)nc4c3)cc(=O)c2c1 (single isomer, unassigned) [Example 133, 2-[1-[6-Methyl-2-(2-methyl-3-oxazol-2-yl-imidazo[1,2-a]pyridin-7-yl)-4-oxo-chromen-8-yl]ethylamino]benzoic acid] | > 10 | > 10 |
